Experimental data published in patent publication US20250170246A1 (priority 2022, published 2025).
Entries after “also recorded” stand apart in the source; their conditions may differ.

How the values were obtained:
SARS CoV-2 (WA1 strain) [1] = format: in vivo, K18-hACE2-Tg mice
SARS CoV-2 (WA1 strain) [2] = assay: SARS CoV-2-infected human precision-cut lung slices, IL-8 in culture supernatants; format: cell-based; settings: 100 μM CDP-choline added daily, 4×10^5 TCID50 SARS CoV-2 WA1, 2 and 3 dpi, vs. saline
From the text: CDP-choline reduces SARS CoV-2-induced inflammation in vitro.

influenza = assay: Antiviral effect against influenza
[3] = cited from earlier work
[4] = administered parenterally; cited from earlier work
[5] = multiple human clinical trials; cited from earlier work
[6] = ultimately excreted in expired CO2 and via urine; cited from earlier work
[7] = male K18-hACE2-Tg mice, 5 mg/kg i.p. daily, 4 dpi, relative to infected saline-treated mice
[8] = male K18-hACE2-Tg mice, 10^5 TCID50 SARS CoV-2 WA1, 5 mg/kg i.p. daily 1-3 dpi, read at 4 dpi

SMILES: C[N+](C)(C)CCOP(=O)(O)OP(=O)(O)OC[C@H]1O[C@@H](n2ccc(N)nc2=O)C(O)C1O (stereo partly shown) [CDP-choline, Cytidine diphosphate-choline]
- reduction of whole lung ccl-3/mip-1a gene expression (SARS CoV-2 (WA1 strain) [1]; CoV-2-infected male K18-hACE2-Tg mice): > 5 fold
- reduction of whole lung il-6 gene expression (SARS CoV-2 (WA1 strain) [1]; [7]): > 5 fold
- reduction of whole lung kc/cxcl-1 gene expression (SARS CoV-2 (WA1 strain) [1]; [7]): > 5 fold
- SARS CoV-2 replication in the lungs (in words) (SARS CoV-2 (WA1 strain) [1]; male K18-hACE2-Tg mice, 5 mg/kg i.p. daily, 4 dpi, vs. saline, 5 mg/kg): significantly reduces; also recorded: significantly decreased
- SARS CoV-2-induced bradycardia (heart rate) (SARS CoV-2 (WA1 strain) [1]; [8]): prevents development; also recorded: completely prevented; also recorded: attenuated
- SARS CoV-2-induced hypoxemia (carotid arterial % O2 saturation, SaO2) (SARS CoV-2 (WA1 strain) [1]; [8]): prevents development; also recorded: completely prevented; also recorded: reversed
- reduction of viral replication (SARS CoV-2 (WA1 strain) [1]; male K18-hACE2-Tg mice, daily post-infection CDP-choline): 0.5 logs
- production of IL-8 by SARS CoV-2-infected human precision-cut lung slices (SARS CoV-2 (WA1 strain) [2]): reduced production; also recorded: significantly reduced; also recorded: attenuated
- antiviral effect against influenza (influenza): no such antiviral effect
- aqueous solubility [3]: high
- bioavailability [4]: excellent
- safety in human clinical trials [5]: safe
- metabolism of CDP-choline not incorporated into phospholipids [6]: rapidly metabolized into cytidine and choline
